Measurements reported in ChEMBL document CHEMBL3112424, “Discovery and optimization of pyrimidone indoline amide PI3Kβ inhibitors for the treatment of phosphatase and tensin homologue (PTEN)-deficient cancers” (J Med Chem, 2014).
Converted amounts (≈) assume the structure as drawn.

How the values were obtained:
Cytochrome P450 3A4 = Cytochrome P450 3A4 (Homo sapiens, UniProt P08684); assay: Inhibition of recombinant human CYP3A4
[1] = Metabolic stability in human liver microsomes at 5 uM after 20 mins
[2] = Metabolic stability in mouse liver microsomes at 5 uM after 20 mins
[3] = Lipophilicity, log D of the compound; assay type: physicochemical; settings: octanol/water
[4] = Dissociation constant, pKa of the compound; assay type: physicochemical
[5] = Apparent permeability in human Caco2 cells at 5 uM after 20 mins; settings: Caco-2
[6] = Solubility of the compound in phosphate buffer at pH 7.4 by HPLC analysis; settings: phosphate buffer
[7] = molecular target: T1, Phosphatidylinositol 4,5-bisphosphate 3-kinase catalytic subunit beta isoform (Homo sapiens, UniProt P42338); assay: Inhibition of PI3Kbeta-mediated Akt phosphorylation at S473 in PTEN-deficient human PC3 cells after 0.5 to 2 hrs by Immunoblotting assay; assay type: cell-based, PC-3
T1 sequence (P42338 whole entry, canonical isoform): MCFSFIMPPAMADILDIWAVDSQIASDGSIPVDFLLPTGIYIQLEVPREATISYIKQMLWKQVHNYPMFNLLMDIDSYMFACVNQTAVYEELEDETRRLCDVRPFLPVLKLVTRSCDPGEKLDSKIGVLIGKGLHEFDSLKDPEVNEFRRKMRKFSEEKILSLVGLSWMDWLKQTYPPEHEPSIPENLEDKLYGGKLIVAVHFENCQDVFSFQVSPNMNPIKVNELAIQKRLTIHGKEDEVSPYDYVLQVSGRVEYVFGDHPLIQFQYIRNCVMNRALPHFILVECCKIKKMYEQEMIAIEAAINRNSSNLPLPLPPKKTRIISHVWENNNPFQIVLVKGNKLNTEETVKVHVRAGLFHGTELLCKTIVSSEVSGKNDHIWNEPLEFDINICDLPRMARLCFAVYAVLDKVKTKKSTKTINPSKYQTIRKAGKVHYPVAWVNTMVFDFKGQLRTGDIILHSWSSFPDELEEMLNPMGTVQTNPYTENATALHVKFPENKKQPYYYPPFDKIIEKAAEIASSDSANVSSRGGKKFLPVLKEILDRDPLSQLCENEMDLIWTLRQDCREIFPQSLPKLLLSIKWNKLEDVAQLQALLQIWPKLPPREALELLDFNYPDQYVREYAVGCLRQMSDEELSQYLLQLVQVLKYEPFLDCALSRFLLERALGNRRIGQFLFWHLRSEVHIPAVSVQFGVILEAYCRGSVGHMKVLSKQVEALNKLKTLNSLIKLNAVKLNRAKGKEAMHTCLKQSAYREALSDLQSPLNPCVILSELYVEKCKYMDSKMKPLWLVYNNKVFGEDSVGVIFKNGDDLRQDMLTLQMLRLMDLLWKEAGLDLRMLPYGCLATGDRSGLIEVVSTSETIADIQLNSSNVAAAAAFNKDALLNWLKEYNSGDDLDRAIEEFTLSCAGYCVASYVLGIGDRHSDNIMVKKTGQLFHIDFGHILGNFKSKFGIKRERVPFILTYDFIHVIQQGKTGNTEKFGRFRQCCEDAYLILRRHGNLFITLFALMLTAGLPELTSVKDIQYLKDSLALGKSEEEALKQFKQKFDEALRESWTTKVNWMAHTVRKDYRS

[8] = molecular target: Phosphatidylinositol 4,5-bisphosphate 3-kinase catalytic subunit gamma isoform (Homo sapiens, UniProt P48736); assay: Inhibition of C-terminal ploy-His-tagged human PI3Kgamma expressed in baculovirus-infected sf9 cells using PI(4,5)P2 as substrate after 15 mins by HTRF assay
Sequence of Phosphatidylinositol 4,5-bisphosphate 3-kinase catalytic subunit gamma isoform (P48736 whole entry, canonical isoform): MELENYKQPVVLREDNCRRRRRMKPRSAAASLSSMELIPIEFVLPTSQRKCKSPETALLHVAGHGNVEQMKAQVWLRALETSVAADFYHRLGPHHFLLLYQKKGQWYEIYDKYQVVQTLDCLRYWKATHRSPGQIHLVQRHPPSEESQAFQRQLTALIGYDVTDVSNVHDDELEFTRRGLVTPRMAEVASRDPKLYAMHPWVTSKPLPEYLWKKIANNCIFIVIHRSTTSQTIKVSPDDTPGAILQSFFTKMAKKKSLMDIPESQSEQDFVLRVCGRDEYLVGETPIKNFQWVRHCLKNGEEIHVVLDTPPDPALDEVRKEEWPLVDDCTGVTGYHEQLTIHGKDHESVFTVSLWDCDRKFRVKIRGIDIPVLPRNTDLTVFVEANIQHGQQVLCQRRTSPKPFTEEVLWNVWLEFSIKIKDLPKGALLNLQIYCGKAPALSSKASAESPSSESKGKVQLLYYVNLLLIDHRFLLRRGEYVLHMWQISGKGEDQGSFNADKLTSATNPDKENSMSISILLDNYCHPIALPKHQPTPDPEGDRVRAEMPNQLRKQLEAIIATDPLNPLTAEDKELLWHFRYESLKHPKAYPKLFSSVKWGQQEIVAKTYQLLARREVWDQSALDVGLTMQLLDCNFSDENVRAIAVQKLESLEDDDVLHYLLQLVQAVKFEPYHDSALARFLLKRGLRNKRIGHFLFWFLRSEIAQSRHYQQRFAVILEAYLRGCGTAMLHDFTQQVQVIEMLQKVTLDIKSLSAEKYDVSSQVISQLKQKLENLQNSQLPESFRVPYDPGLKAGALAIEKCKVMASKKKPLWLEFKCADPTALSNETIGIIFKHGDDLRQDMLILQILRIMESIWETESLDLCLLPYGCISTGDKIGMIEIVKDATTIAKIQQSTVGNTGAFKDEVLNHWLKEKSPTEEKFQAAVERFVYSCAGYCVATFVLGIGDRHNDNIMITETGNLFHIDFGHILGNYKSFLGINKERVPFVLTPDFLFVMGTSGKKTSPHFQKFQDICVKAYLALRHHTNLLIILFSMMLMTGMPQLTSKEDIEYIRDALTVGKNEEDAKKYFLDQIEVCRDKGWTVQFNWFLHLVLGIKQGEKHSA

[9] = molecular target: T2, Phosphatidylinositol 4,5-bisphosphate 3-kinase catalytic subunit delta isoform (Homo sapiens, UniProt O00329); assay: Inhibition of N-terminal ploy-His-tagged human PI3Kdelta expressed in baculovirus-infected sf9 cells using PI(4,5)P2 as substrate after 15 mins by HTRF assay
T2 sequence (O00329 whole entry): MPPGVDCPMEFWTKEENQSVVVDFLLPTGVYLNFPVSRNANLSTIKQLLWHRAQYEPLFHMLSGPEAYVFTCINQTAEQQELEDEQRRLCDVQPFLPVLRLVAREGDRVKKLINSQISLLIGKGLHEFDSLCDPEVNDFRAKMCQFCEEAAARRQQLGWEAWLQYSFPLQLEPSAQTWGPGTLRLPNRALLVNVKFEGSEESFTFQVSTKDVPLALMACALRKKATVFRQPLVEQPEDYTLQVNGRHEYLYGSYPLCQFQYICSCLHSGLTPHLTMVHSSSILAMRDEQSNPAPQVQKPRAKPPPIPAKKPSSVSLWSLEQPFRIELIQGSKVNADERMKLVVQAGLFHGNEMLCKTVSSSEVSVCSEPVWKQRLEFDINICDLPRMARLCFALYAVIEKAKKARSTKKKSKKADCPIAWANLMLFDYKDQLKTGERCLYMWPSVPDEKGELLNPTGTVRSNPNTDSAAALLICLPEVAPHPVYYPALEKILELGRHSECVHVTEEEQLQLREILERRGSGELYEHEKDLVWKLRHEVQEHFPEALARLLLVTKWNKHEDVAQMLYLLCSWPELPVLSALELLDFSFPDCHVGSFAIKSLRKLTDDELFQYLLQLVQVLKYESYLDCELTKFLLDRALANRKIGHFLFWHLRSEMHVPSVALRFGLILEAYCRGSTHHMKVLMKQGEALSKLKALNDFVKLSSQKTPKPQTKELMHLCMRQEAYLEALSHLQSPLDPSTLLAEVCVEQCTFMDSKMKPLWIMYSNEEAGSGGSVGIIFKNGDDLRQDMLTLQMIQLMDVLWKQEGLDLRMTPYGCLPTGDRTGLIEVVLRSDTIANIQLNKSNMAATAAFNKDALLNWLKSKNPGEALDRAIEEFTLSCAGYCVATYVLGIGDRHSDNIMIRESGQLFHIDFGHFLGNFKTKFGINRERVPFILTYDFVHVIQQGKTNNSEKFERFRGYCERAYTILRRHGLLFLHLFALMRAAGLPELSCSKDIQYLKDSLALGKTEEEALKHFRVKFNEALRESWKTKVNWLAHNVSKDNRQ

[10] = molecular target: T1, Phosphatidylinositol 4,5-bisphosphate 3-kinase catalytic subunit beta isoform; assay: Inhibition of N-terminal ploy-His-tagged human PI3Kbeta expressed in baculovirus-infected sf21 cells using PI(4,5)P2 as substrate after 15 mins by HTRF assay
[11] = molecular target: Phosphatidylinositol 4,5-bisphosphate 3-kinase catalytic subunit alpha isoform (Homo sapiens, UniProt P42336); assay: Inhibition of N-terminal ploy-His-tagged human PI3Kalpha expressed in baculovirus-infected sf9 cells using PI(4,5)P2 as substrate after 15 mins by HTRF assay
Sequence of Phosphatidylinositol 4,5-bisphosphate 3-kinase catalytic subunit alpha isoform (P42336 whole entry, canonical isoform): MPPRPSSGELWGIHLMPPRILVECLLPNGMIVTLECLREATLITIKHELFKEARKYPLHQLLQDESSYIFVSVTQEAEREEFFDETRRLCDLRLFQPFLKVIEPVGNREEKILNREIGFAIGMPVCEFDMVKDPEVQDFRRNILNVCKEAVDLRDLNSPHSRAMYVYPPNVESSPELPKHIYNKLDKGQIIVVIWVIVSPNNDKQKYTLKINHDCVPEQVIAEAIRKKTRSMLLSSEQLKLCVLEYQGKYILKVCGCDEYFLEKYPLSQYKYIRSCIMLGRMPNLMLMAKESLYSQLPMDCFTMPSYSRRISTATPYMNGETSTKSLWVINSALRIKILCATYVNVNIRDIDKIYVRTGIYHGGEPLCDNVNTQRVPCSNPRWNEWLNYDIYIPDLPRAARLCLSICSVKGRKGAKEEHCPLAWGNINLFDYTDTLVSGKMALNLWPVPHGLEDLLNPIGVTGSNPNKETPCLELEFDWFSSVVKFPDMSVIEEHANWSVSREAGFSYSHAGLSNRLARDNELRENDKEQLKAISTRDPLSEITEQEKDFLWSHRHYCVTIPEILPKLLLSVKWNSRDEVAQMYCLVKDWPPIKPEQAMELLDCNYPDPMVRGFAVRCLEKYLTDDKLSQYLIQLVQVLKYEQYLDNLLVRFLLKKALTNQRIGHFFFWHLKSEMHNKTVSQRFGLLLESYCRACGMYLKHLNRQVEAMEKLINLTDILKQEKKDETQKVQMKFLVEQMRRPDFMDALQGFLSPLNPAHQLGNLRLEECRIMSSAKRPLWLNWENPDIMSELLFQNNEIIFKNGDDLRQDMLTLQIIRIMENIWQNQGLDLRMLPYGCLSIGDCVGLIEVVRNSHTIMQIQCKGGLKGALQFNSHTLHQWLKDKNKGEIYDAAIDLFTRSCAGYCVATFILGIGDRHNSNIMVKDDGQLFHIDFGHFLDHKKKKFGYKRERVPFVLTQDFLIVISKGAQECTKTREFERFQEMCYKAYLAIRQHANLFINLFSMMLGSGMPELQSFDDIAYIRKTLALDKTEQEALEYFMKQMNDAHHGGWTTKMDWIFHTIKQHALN

PC-3 = assay: Antitumor activity against po dosed PTEN-deficient human PC3 cells xenografted in nude mouse assessed as tumor growth inhibition administered as qd measured for 52 days; assay type: functional

Sequence of Cytochrome P450 3A4 (P08684 whole entry): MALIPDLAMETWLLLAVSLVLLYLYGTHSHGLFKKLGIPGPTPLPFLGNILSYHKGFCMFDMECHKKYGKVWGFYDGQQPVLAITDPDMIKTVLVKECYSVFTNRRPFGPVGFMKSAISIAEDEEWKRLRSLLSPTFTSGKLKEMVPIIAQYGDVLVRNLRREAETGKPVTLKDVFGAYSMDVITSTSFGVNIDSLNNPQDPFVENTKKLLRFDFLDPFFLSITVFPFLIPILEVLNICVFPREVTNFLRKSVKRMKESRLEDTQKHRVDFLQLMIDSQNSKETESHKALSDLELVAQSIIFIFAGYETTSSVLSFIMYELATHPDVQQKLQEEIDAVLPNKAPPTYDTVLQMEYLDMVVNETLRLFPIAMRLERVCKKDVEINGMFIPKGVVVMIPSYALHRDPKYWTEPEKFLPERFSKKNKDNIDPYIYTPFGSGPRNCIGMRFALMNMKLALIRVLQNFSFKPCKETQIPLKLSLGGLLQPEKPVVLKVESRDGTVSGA

Compound | IC50 (Cytochrome P450 3A4) [µM] | remaining at 20 min, 5 µM ([1]; liver microsomes) [%] | remaining at 20 min, 5 µM ([2]; liver microsomes) [%] | logD [3] | pKa [4] | Papp at 20 min, 5 µM [5] [×10⁻⁶ cm/s] | solubility [6] [µM] | IC50 [7] [µM] | IC50 [8] [µM] | IC50 [9] [µM] | IC50 [10] [µM] | IC50 [11] [µM] | remaining at 20 min, 5 µM ([1]; microsomes) [%] | remaining at 20 min, 5 µM ([2]; microsomes) [%] | T/C (PC-3) [%]
O=C(Cc1nc(N2CCOCC2)cc(=O)[nH]1)N1CCc2c(-c3ccncc3)cccc21 | 31 | 43 | 44 | 1.99 | 4.5 | 0.4 | 69 (≈ 28.8 µg/mL) | 0.094 | 1 | 0.022 | 0.01 | 1 | – | – | –
O=C(Cc1nc(N2CCOCC2)cc(=O)[nH]1)N1CCc2c(-c3cccnc3)cccc21 | 40 | 29 | 49 | 1.99 | 4.5 | 0.8 | 60 (≈ 25 µg/mL) | 0.053 | 2.46 | 0.007 | 0.017 | 0.361 | – | – | –
O=C(Cc1nc(N2CCOCC2)cc(=O)[nH]1)N1CCc2cc(F)ccc21 | 40 | 18 | 14 | – | – | 3 | 31 (≈ 11.1 µg/mL) | 0.007 | 1.59 | 0.017 | 0.004 | 0.426 | – | – | –
Cn1c(Cc2nc(N3CCOCC3)cc(=O)[nH]2)nc2ccccc21 | – | – | – | – | – | – | – | – | 10 | – | – | – | – | – | –
C[C@@H]1Cc2ccccc2N1C(=O)Cc1nc(N2CCOCC2)cc(=O)[nH]1 | 40 | 43 | 52 | – | – | 5.1 | 2500 (≈ 885 µg/mL) | 0.012 | 3.31 | 0.006 | 0.006 | – | – | – | –
CC1CN(C(=O)Cc2nc(N3CCOCC3)cc(=O)[nH]2)c2ccccc21 (racemic) | 40 | 47 | 40 | – | – | 7.5 | 3 (≈ 1.06 µg/mL) | 0.013 | 10 | 0.087 | 0.022 | 2.26 | – | – | –
Cc1cccc2c1CCN2C(=O)Cc1nc(N2CCOCC2)cc(=O)[nH]1 | – | 32 | 60 | – | – | 7.4 | 3 (≈ 1.06 µg/mL) | 0.003 | 1.78 | 0.024 | 0.005 | 0.138 | – | – | –
O=C(Cc1nc(N2CCOCC2)cc(=O)[nH]1)N1CCc2c(-c3ccccn3)cccc21 | 11 | 36 | 40 | – | – | 4.2 | 110 (≈ 45.9 µg/mL) | 0.066 | 8.97 | 0.106 | 0.098 | 2.38 | – | – | –
O=C(Cc1nc(N2CCOCC2)cc(=O)[nH]1)N1CCc2c(OC(F)(F)F)cccc21 | 40 | 48 | 44 | – | – | 4.1 | 12 (≈ 5.09 µg/mL) | 0.054 | 7.42 | 0.034 | 0.033 | 1 | – | – | –
CC1(C)Cc2ccccc2N1C(=O)Cc1nc(N2CCOCC2)cc(=O)[nH]1 | – | – | – | – | – | – | 46 (≈ 16.9 µg/mL) | 0.078 | – | 0.58 | 0.102 | – | – | – | –
O=C(Cc1nc(N2CCOCC2)cc(=O)[nH]1)N1CCc2c(Br)cccc21 | 40 | 24 | 22 | – | – | 4.2 | 2 (≈ 0.839 µg/mL) | 0.001 | 3.98 | 0.055 | 0.006 | 0.085 | – | – | –
COc1cccc2c1CCN2C(=O)Cc1nc(N2CCOCC2)cc(=O)[nH]1 | 40 | 0 | 70 | – | – | 0.6 | 5 (≈ 1.85 µg/mL) | 0.06 | – | 0.648 | 0.041 | 2.42 | – | – | –
O=C(Cc1nc(N2CCOCC2)cc(=O)[nH]1)N1CCc2c(F)cccc21 | – | – | – | – | – | – | – | – | 6.22 | 0.122 | – | 2.45 | 19 | 9 | –
CC1Cc2ccccc2N1C(=O)Cc1nc(N2CCOCC2)cc(=O)[nH]1 (racemic) | – | – | – | – | – | – | 2750 (≈ 976 µg/mL) | 0.006 | 9.15 | 0.036 | 0.004 | – | – | – | –
C[C@H]1c2cccc(O)c2C(=O)C2=C(O)[C@]3(O)C(=O)C(C(N)=O)=C(O)[C@@H](N(C)C)[C@@H]3[C@@H](O)[C@@H]21.O [DOXYCYCLINE] | – | – | – | – | – | – | – | – | – | – | – | – | – | – | 49
O=C(Cc1nc(N2CCOCC2)cc(=O)[nH]1)N1CCc2c(-c3ccccc3)cccc21 | 40 | 40 | 25 | – | – | 7.1 | – | 0.024 | 1.53 | 0.018 | 0.008 | 0.217 | – | – | –
O=C(Cc1nc(N2CCOCC2)cc(=O)[nH]1)N1CCc2ccccc21 | 40 | 12 | 21 | – | – | 5.9 | 12 (≈ 4.08 µg/mL) | 0.015 | 10 | 0.028 | 0.004 | 0.46 | – | – | –
CN1CCN(Cc2cccc3c2CCN3C(=O)Cc2nc(N3CCOCC3)cc(=O)[nH]2)CC1 | – | – | – | – | – | – | 4420 (≈ 2000 µg/mL) | 0.272 | – | 0.002 | 0.332 | 0.66 | – | – | –
O=C(Cc1nc(N2CCOCC2)cc(=O)[nH]1)N1CCc2cc(Cl)ccc21 | 40 | 34 | 36 | – | – | 1.4 | 3 (≈ 1.12 µg/mL) | 0.124 | 10 | 4.13 | 0.079 | 2.02 | – | – | –
CN1CCN(c2cccc3c2CCN3C(=O)Cc2nc(N3CCOCC3)cc(=O)[nH]2)CC1 | – | – | – | – | – | – | 1500 (≈ 656 µg/mL) | 0.167 | 10 | 0.022 | 0.407 | 0.96 | – | – | –
Cn1c(CC(=O)N2CCc3ccccc32)nc(N2CCOCC2)cc1=O | – | 14 | 37 | – | – | 8.3 | 36 (≈ 12.8 µg/mL) | 0.02 | – | 0.278 | 0.048 | 4.32 | – | – | –
O=C(Cc1nc(N2CCOCC2)cc(=O)[nH]1)N1CCc2c1cccc2C(F)(F)F | 40 | 24 | 13 | – | – | 4.6 | 12 (≈ 4.9 µg/mL) | 0.009 | 8.4 | 0.098 | 0.01 | 0.39 | – | – | –
CC1(C)CN(C(=O)Cc2nc(N3CCOCC3)cc(=O)[nH]2)c2ccccc21 | 40 | 83 | 87 | – | – | 4 | 46 (≈ 16.9 µg/mL) | 0.028 | – | 0.278 | 0.017 | 5.42 | – | – | –
O=C(Cc1nc(N2CCOCC2)cc(=O)[nH]1)N1CCc2c(Cl)cccc21 | 40 | 18 | 27 | – | – | 8.8 | 5 (≈ 1.87 µg/mL) | 0.003 | 1.13 | 0.021 | 0.001 | 0.086 | – | – | –
